Our source for the viability values is paper PMC12040169 (PLOS Biology, 2025).

By viability is commonly meant a read-out of living cells in per cent, often relative to untreated cells.

A short description of the series: in vitro. The conditions noted are these: human, hela cells, % viability.

Turning to `O=C(N[C@H]1CCN2C(=O)[C@@H](Cc3ccccc3)NC(=O)[C@H]12)c1cnccn1` [CBK289231], the viability at 28.5 h, 10 µM stood at 83.6%. With `Cc1nc2c(-c3ccccc3)cnn2c(N2CCCC2)c1C` [CBK287799], the viability at 28.5 h, 10 µM stood at 89%.

On to `O=C1NCC(C(=O)N2CCC3(CC2)CC(=O)c2cc(Br)ccc2O3)N1` (centres unmarked) [CBK156475], for which the viability at 28.5 h, 10 µM is 87.7%. For `O=C(Cn1nc(C(=O)O)c2ccccc2c1=O)c1ccc(C2CCCCC2)cc1` [CBK297538], the viability at 28.5 h, 10 µM came out at 89.5%. For the molecule `N#Cc1ccccc1NC(=O)NCCC1=CCCCC1` [CBK044365], the viability at 28.5 h, 10 µM stood at 95.1%.

Consider `COc1cccc(Oc2nccnc2-c2cnn(C)c2)c1` [CBK107071], for which the viability at 28.5 h, 10 µM came to 98%.

For `COc1ccc(CC(CC(=O)O)C(=O)Nc2ccc(OC)cc2)cc1` (centres unmarked) [CBK286975], the viability at 28.5 h, 10 µM amounted to 87.9%. The value for `CN1C(=O)COc2ccccc2CCCC[C@@H]2[C@H]1CCCN2C(=O)c1cc(=O)[nH]c(=O)[nH]1` [CBK292110] was 83.3%.

In the case of `N#CC1(NC(=O)CN2CCOC(Cn3cccn3)C2)CCCCC1` (centres unmarked) [CBK305268], the viability at 28.5 h, 10 µM came out at 87.2%. The figure for `CCCCOc1ccc(C(=O)N/C(=C/c2ccco2)C(=O)Nc2cccc(C(=O)O)c2)cc1` [CBK300491] is 92.4%. Regarding `COc1ccc(CNc2nc(C)n[nH]2)cc1Cl` [CBK288036], the viability at 28.5 h, 10 µM turned out to be 98.9%.

With `CCNC(=O)Nc1ccc2c(-c3cccc(C(F)(F)F)c3)ccnc2n1` [CBK070678], the viability at 28.5 h, 10 µM was found to be 93.7%.

`CN1CCN(c2ccc(C(=O)N3CCC(F)CC3)cc2)CC1` [CBK200265]: the viability at 28.5 h, 10 µM was found to be 109%. The figure for `COc1cc(-c2cn3ccnc3c(N3CCN(c4ccncc4)CC3)n2)cc(OC)c1OC` [CBK037896] is 86.6%; for `O=C(NC[C@H]1O[C@@H](CC(=O)N2CCCC2)[C@H](O)[C@@H]1O)c1ccc(F)c(Cl)c1` [CBK288913] it is 90.9%; for `CNC(=O)CN1CCC[C@@H]2NC(=O)COc3ccccc3C(=O)N[C@@H]3CCOC[C@@H]3C/C=C/C[C@@H]21` [CBK292040] it is 100%. The value for `Cc1cccn2c(=O)c(/C=C3\SC(=S)N(Cc4ccccc4)C3=O)c(NCCCn3ccnc3)nc12` [CBK263833] was 102%; that for `Cc1ncc(CN(C)C(C)C(=O)Nc2ccccc2N2CCCC2=O)s1` (centres unmarked) [CBK298274] was 92%; that for `Cc1ccc(S(=O)(=O)Nc2ccsc2C(=O)N2CCOCC2)cc1[N+](=O)[O-]` [CBK004612] was 81.7%. The figure for `Cc1cc2ncc3c(n2n1)CC1CCC3N1C(=O)CCc1ccco1` (centres unmarked) [CBK284380] is 78.2%; for `O=C(CSc1nnc(-c2ccco2)[nH]1)c1ccc(O)cc1O` [CBK264392] it is 108%. For the molecule `O=C(NCc1cccnc1)c1cc(S(=O)(=O)N2CCCC2)c(Cl)cc1Cl` [CBK264455], the viability at 28.5 h, 10 µM came out at 108%.

Take `CCOC(=O)c1sc(NS(=O)(=O)c2ccc(C(=O)O)cc2)cc1C` [CBK296623]: the viability at 28.5 h, 10 µM was found to be 100%. Turning to `Cc1c(-c2cccc(NC(=O)c3ccccc3)c2)nc2ncccn12` [CBK287504], the viability at 28.5 h, 10 µM is 67.3%. The figure for `O=C(NCC1CCOC1)c1ccc(-c2ccccc2CO)cc1` (centres unmarked) [CBK306616] is 107%; for `COc1ccc(Cl)cc1C(=O)O/N=C(\N)Cc1cccc2ccccc12` [CBK266275] it is 98.3%. The value for `Cc1nn(CC(=O)OC(C)C)c(=O)c2cc3sccc3n12` [CBK284022] was 93.7%; that for `O=C(c1ccc(F)cc1)N1CCC(c2cc3cnccc3[nH]2)CC1` [CBK283445] was 87.3%. The figure for `CC1CN(Cc2nc3c(c(=O)[nH]c(=O)n3C)n2CCc2ccccc2)CC(C)O1` (centres unmarked) [CBK269876] is 98.1%. Turning to `Nc1ccc(-c2nnc(SCC(=O)Nc3ccc(Br)cc3F)n2-c2ccccc2)cc1` [CBK267175], the viability at 28.5 h, 10 µM amounted to 98.8%. Consider `O=C(NCCCN1CCOCC1)c1ccccc1Br` [CBK262602C], for which the viability at 28.5 h, 10 µM was 106%. The figure for `COc1ccc(CNC(=O)CN2CCCCC2Cn2cccn2)cc1` (centres unmarked) [CBK305379] is 93.1%. As for `COc1ccc(NC(=O)CSc2nc(N)cc(O)n2)c([N+](=O)[O-])c1` [CBK267904], the viability at 28.5 h, 10 µM was determined as 101%. The figure for `COc1ccc(N2CCN(C(=S)c3ccc(OCC(N)=O)cc3)CC2)cc1` [CBK269190] is 100%; for `COc1ccc(C(=O)N2CCC3(CC2)NC(=O)c2ccc(C(F)(F)F)cc2O3)cc1OC` [CBK166265] it is 102%; for `CC(=O)Nc1ccc(NC(=O)c2cnc(-c3cccc(C)c3)c(-c3ccncc3)c2)cc1C(F)(F)F` [CBK036660] it is 49.6%. The figure for `Nc1nnc(CC(=O)N/N=C/c2cc(Br)c(O)c(Br)c2O)s1` [CBK262131] is 96%; for `Cc1nc2ccccc2c(=O)n1CCC(=O)N1CCc2sccc2C1c1ccco1` (centres unmarked) [CBK285706] it is 94.3%. The figure for `O=C(CCn1cccn1)NC(Cc1ccsc1)c1cccnc1` (centres unmarked) [CBK285393] is 101%. With `CN1C(C(=O)O)=CC(c2ccc(F)cc2)=NS1(=O)=O` [CBK287016], the viability at 28.5 h, 10 µM was 97.7%.

With `Nc1ncc(-c2ccncc2)nc1-c1ccc(C=O)cc1` [CBK064102], the viability at 28.5 h, 10 µM was found to be 106%. As to `COc1ccc([C@@]23CC[C@@H](NC(=O)Nc4ccc(C(C)(C)C)cc4)C[C@@H]2N(C)CC3)cc1OC` [CBK036469T], the viability at 28.5 h, 10 µM is 92%.

With `CNC1CCN(S(=O)(=O)c2sc3ccc(C(C)C)cc3c2C)C1` (centres unmarked) [CBK170067], the viability at 28.5 h, 10 µM is 110%.

As for `C=CCn1c2ccccc2c2nnc(SCC(=O)OCN3C(=O)c4ccccc4C3=O)nc21` [CBK263231], the viability at 28.5 h, 10 µM came out at 106%. For the molecule `O=C1CC(c2ccccc2)CC(NCc2ccc3c(c2)OCO3)=C1C(=S)Nc1ccccc1` (centres unmarked) [CBK264890], the viability at 28.5 h, 10 µM came out at 94.4%. Regarding `Cn1cc(C2CNCCN2C(=O)c2coc3ccccc23)cn1` (centres unmarked) [CBK304270C], the viability at 28.5 h, 10 µM was 87%. The figure for `CCCCNC(=S)NC1CC[C@@]2(Cc3ccc(OC)c(OC)c3)CCN(C)[C@H]2C1` (some centres unmarked) [CBK023805] is 81.5%; for `COc1cc(Nc2cccc(-c3ccsc3)n2)cc(OC)c1OC` [CBK036987] it is 97.9%. The value for `O=S(=O)(c1ccc2ccccc2c1)N1CCN(C2CCC(c3ccccc3)CC2)CC1` (centres unmarked) [CBK264152] was 103%; that for `CCOC(=O)N1CCC(n2c(=O)[nH]c3ccccc32)CC1` [CBK149867] was 79.6%.

As for `O=C(NCc1ccco1)[C@H]1CN2CCC1C[C@@H]2Cn1cc(CO)nn1` (some centres unmarked) [CBK289080], the viability at 28.5 h, 10 µM was 113%.

Turning to `COc1ccc(-c2cc(NCc3cc(OC)c(OC)c(OC)c3)ncn2)cc1` [CBK091184], the viability at 28.5 h, 10 µM came out at 90%. On to `O=C(CO)N1CC2(CCN(CCCn3c(=O)[nH]c4ccccc43)CC2)c2ccccc21` [CBK131506], for which the viability at 28.5 h, 10 µM came to 91.9%. Regarding `COC(=O)CCC(=O)N1CCc2c([nH]c3ccccc23)C12CCN(CCCc1ccccc1OC)C2` (centres unmarked) [CBK074952], the viability at 28.5 h, 10 µM is 93.9%.

On to `CN1CCN(C(=O)CSc2nnc(COc3ccccc3)o2)CC1` [CBK268970], for which the viability at 28.5 h, 10 µM came to 85.4%. The value for `CC(C)[C@H](CO)Nc1nc(-c2ccco2)cn2ccnc12` [CBK066316] was 103%. The figure for `O=C1COCC(=O)N1c1ccccn1` [CBK006233] is 89.2%. `CN1CCN(C(=O)c2ccc(NS(=O)(=O)c3ccc(Oc4ccccc4)cc3)cc2)CC1` [CBK034559]: the viability at 28.5 h, 10 µM came to 97.4%. On to `COc1ccc(-c2nc(NC(=O)Cc3ccc(S(C)(=O)=O)cc3)cnc2-c2cccc(C)c2)cc1` [CBK037525], for which the viability at 28.5 h, 10 µM was found to be 88.2%. The figure for `CCCCN(C)c1c(CC)nc2ccc(C(=O)N3CCNC(=O)C3)cn12` [CBK145460] is 87.9%. The value for `Cc1ccc(-n2cnnn2)c(S(=O)(=O)N2CCOCC2)c1` [CBK268297] was 102%; that for `O=C(Nc1cccc(-c2cn3cccnc3n2)c1)c1cccc([N+](=O)[O-])c1` [CBK268963] was 93%; that for `Cc1cc(C)nc(N2CCN(C(=O)CCC(=O)NCc3cccc(C(F)(F)F)c3)CC2)n1` [CBK022261] was 107%. As to `C=CCn1ncc(CN2CCC3(O)CCCCC3C2)c1C` (centres unmarked) [CBK283029], the viability at 28.5 h, 10 µM turned out to be 100%.

For `COC(=O)CCCNS(=O)(=O)c1ccc([N+](=O)[O-])cc1` [CBK261172], the viability at 28.5 h, 10 µM is 109%. The figure for `O=C(Nc1ccc(N2CCN(Cc3ccccc3)CC2)cc1)c1nc[nH]n1` [CBK266960] is 105%; for `O=C(Nc1ccc(OCc2ccccc2)cc1)c1cnc2n(c1=O)CCS2` [CBK287378] it is 91.3%. Take `Cc1cccc(=O)n1CCCn1cc(C2CCCNC2)nn1` (centres unmarked) [CBK306946]: the viability at 28.5 h, 10 µM was found to be 91%. On to `COc1ccc(-c2csc(CC(=O)O)n2)cc1` [CBK159469], for which the viability at 28.5 h, 10 µM was determined as 85.4%.

In the case of `COC(=O)CCCC(=O)n1c(=O)n(Cc2ccc(S(C)(=O)=O)cc2)c2ccccc21` [CBK106538], the viability at 28.5 h, 10 µM worked out at 105%. In the case of `CNC(=O)CN1CCC[C@@H]2NC(=O)c3ccccc3OCCCCC[C@@H]21` [CBK292104], the viability at 28.5 h, 10 µM worked out at 104%. The value for `Cn1nnnc1SCC(=O)Nc1cc(F)ccc1F` [CBK057872] was 79.9%; that for `CC(C)[C@H](CO)Nc1nc(-c2ccc3c(c2)OCO3)cn2ccnc12` [CBK038071] was 101%. `Cn1nc(C2CC2)cc1NS(C)(=O)=O` [CBK038148]: the viability at 28.5 h, 10 µM was 93.9%. The value for `CCOC(=O)c1[nH]c2ccccc2c1NC(=O)c1c(F)ccc(Cl)c1F` [CBK160141] was 120%; that for `COc1ccc([N+](=O)[O-])cc1NC(=O)c1cc(Cl)c(OC)c(Cl)c1` [CBK268594] was 82.6%. As for `CCOC(=O)Nc1ccc2c(c1)N(C(=O)CCN(C)C)c1ccccc1CC2` [CBK278193C], the viability at 28.5 h, 10 µM came to 89.9%.
